What was measured:
Pythium aphanidermatum = assay: Paper disk in-vitro bioactivity assay on PDA plates; assay type: cell-based; conditions: PDA plate
Achlya bisexualis = assay: as above; assay type: cell-based; conditions: PDA plate
S. parasitica mycelia = assay: Compound bioassays of 8-Nonenoic acid in liquid and solid media; assay type: cell-based, Saprolegnia parasitica; conditions: for Concentration giving full inhibition of S. parasitica growth: 19° C., 3 days
Description: The inhibition activity of the compound 8-Nonenoic acid was examined in both liquid and solid media. For liquid assay, a plug of PDA harboring the S. parasitica mycelia was introduced to 1 ml of sterile double distilled water (DDW) with 10 μl of potato dextrose broth (PDB) and varying concentrations of 8-Nonenoic acid (0, 0.1, 0.5, 1, 2.5, 5, 7.5, 10, 20 μg/ml) in 48 well plate and incubated at 19° C. for 3 days. For solid assay, a plug of PDA harboring the S. parasitica mycelia was introduced to 50 mm PDA petri plates with varying concentrations of 8-Nonenoic acid (as described above) and incubated at 19° C. for 3 days. For both liquid and solid, mycelium growth radios was measured and S. parasitica plugs viability were evaluated by transferring them to fresh PDB/PDA and observing the growth developed within 3 days. All experiments were performed in triplicates.

Saprolegnia parasitica = assay: 8-Nonenoic acid vs. Saprolegnia parasitica in Tilapia eggs bioassay test; assay type: in vivo, Tilapia (Oreochromis mossambicus) eggs; conditions: S. parasitica plugs and 10 μg/ml, one week, 26° C.
Description: Tilapia (Oreochromis mossambicus) eggs, 3 days post fertilization, were collected from the hatchery at the department of fisheries in ARO the Volcani Center and brought to the lab. Eggs were rinsed with aquarium water. Eggs were introduced to 100 ml flasks (25 ml water in each flask), 6 eggs for each flask. Eggs were introduced with Saprolegnia parasitica plugs in the flask or with Saprolegnia parasitica plugs and 10 μg/ml 8-Nonenoic acid. Control eggs were not treated and/or supplemented. Flasks were incubated on a shaker under controlled conditions: 26° C., 95 rpm, and day light for a week.

Photobacterium damselae = assay type: cell-based; conditions: 200 μg
Aeromonas salmonicida = assay type: cell-based; conditions: 200 μg
Streptococcus iniae = assay type: cell-based; conditions: 200 μg
Phytophthora infestans = assay type: cell-based; conditions: 200 μg on a paper disk, PDA plate

Compound	Inhibition of the oomycote mycelium (Pythium aphanidermatum; 100 μg on a paper disk)	Inhibition of the oomycote mycelium (Achlya bisexualis; 100 μg on a paper disk)	Inhibition of S. parasitica growth (S. parasitica mycelia; 0.1 g/ml in both water and agar)	Inhibition of S. parasitica growth (S. parasitica mycelia; 0.5-2.5 μg/ml, agar phase)	Concentration at which the growth radius decreased (S. parasitica mycelia; in agar)	Concentration giving full inhibition of S. parasitica growth (S. parasitica mycelia; in agar (solid assay))	Concentration giving full inhibition of S. parasitica growth (S. parasitica mycelia; in water (liquid assay))	Ability to inhibit S. parasitica growth (screen of compounds identified from ABp5) (S. parasitica mycelia; purchased GC/MS-identified compounds, FIG. 13A)	Viability of fully inhibited S. parasitica plugs (S. parasitica mycelia; transferred to a new plate)	Survival of Tilapia eggs (Saprolegnia parasitica)	Inhibition of the oomycete mycelium (Pythium aphanidermatum; 200 μg on a paper disk)	Inhibitory activity (Photobacterium damselae)	Inhibition of the oomycete mycelium (Achlya bisexualis; 200 μg on a paper disk)	Inhibitory activity (Aeromonas salmonicida)	Inhibitory activity (Streptococcus iniae)	Inhibition of the oomycete mycelium (Phytophthora infestans)
C=CCCCCCCC(=O)O [8-Nonenoic acid]	showed inhibition	showed inhibition	No inhibition	no inhibition	≥ 5 µg/mL	20 µg/mL	2.5 µg/mL	strong ability to inhibit	complete loss of viability	did survive	–	–	–	–	–	–
CC(C)(c1ccccc1)c1ccc(O)cc1 [4-Cumylphenol]	–	–	–	–	–	–	–	–	–	–	showed inhibition	showed inhibitory activity	showed inhibition	showed inhibitory activity	showed inhibitory activity	showed inhibition
